Read-outs that look alike come from different tables or passages of the source.
Key:
[1] = target: T1, human PRMT1 (Homo sapiens, UniProt Q99873); assay: PRMT1 Biochemical Assay; details: peptide substrate, 3H-SAM Flashplate assay; read-out: PRMT1 IC50
T1 construct: GST-tagged PRMT1; made in house; host or cells: High Five insect cells (baculovirus, pFastBac1)
Method in brief: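 GST-tagged PRMT1 from baculovirus-infected cells, preincubated with compounds 30 min at room temperature in 20 mM Bicine pH 7.6, 1 mM TCEP, 0.005% BSG, 0.002% Tween 20. Reaction started with ³H-SAM plus biotinylated peptide, stopped with 300 µM cold SAM.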

[2] = target: T2, human PRMT6 (Homo sapiens, UniProt Q96LA8); assay: PRMT6 Biochemical Assay
T2 construct: Flag-PRMT6-His; made in house; host or cells: HEK 293F cells (BacMam baculovirus, pFastBacMam)
T2 sequence (Q96LA8 with tags, fused parts or gaps): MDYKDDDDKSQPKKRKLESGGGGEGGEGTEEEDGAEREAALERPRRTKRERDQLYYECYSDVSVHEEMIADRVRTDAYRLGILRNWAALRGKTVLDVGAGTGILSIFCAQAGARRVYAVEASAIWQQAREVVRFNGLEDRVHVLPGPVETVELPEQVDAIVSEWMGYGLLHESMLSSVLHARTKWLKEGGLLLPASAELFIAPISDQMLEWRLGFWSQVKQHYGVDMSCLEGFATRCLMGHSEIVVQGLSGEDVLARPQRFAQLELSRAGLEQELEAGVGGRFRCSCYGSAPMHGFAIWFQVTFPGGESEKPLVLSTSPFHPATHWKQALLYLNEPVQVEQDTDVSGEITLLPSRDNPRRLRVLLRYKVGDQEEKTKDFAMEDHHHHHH

[3] = system: mono-methyl arginine in RKO cells; assay: RKO Methylation Assay, In Cell Western (ICW); assay type: cell-based; details: 72 hours
[4] = target: human PRMT8 (Homo sapiens, UniProt Q9NR22); assay: PRMT8 Biochemical Assay; details: PRMT8 IC50 (uM), peptide substrate, 3H-SAM Flashplate assay
Chain of human PRMT8 (Q9NR22 whole entry): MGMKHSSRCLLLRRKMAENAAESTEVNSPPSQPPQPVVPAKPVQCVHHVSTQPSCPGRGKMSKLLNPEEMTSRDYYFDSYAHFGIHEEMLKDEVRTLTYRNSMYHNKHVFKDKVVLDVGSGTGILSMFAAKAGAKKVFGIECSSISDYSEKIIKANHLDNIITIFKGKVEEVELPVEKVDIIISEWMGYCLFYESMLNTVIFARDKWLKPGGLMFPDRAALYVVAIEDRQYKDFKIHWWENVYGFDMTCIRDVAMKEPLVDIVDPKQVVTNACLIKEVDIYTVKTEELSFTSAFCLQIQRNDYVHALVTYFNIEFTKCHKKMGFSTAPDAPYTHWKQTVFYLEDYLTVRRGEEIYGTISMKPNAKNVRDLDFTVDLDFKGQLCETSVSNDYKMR

[5] = peptide substrate, 3H-SAM Flashplate assay, read-out: PRMT6 IC50

T1 sequence (Q99873 with tags, fused parts or gaps): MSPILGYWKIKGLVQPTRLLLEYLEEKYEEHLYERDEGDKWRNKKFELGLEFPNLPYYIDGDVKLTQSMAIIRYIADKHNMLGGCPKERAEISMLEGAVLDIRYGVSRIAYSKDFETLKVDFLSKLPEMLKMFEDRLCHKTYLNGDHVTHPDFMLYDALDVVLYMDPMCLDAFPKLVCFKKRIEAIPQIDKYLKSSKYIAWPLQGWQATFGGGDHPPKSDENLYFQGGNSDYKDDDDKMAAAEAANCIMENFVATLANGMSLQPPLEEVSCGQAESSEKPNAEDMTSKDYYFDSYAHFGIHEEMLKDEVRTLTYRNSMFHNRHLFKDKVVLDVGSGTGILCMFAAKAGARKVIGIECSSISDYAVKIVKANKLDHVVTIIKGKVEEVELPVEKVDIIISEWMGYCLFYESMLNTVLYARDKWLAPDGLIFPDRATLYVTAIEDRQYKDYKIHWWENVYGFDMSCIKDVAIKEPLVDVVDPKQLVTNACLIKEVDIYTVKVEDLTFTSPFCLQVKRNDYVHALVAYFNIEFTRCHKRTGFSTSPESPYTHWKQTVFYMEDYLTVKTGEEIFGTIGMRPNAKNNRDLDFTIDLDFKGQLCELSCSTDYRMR

Compound	IC50 [1]	IC50 [2, 5]	ICW EC30 [3]	IC50 [4]	IC50 ([2]; PRMT6 IC50 (uM))
CNCCN(C)Cc1c[nH]nc1-c1ccc(OCCOc2ccc(C)cc2)cc1 [Compound 42]	8.9 nM	0.00498 µM	185 nM	0.0514 µM	
CNCCN(C)Cc1c[nH]nc1-c1cc(C)c(OCC2CC2)c(C(F)(F)F)c1 [Compound 43]	8.97 nM		475 nM	0.015 µM	0.0326 µM
CNCCN(C)Cc1ccnn1-c1ccc(COC)cc1 [Compound 44]	9.25 nM	0.0565 µM	130 nM	0.0235 µM	
CCN(CCOc1cccc(OC)c1)c1ccc(-c2n[nH]cc2CN(C)CCNC)cc1 [Compound 45]	9.26 nM	0.0331 µM	1140 nM	0.0367 µM	
CNCCN(C)Cc1c[nH]nc1-c1ccc(OCCOc2ccc(OCCN3CCOCC3)cc2)cc1 [Compound 46]	9.49 nM	0.00456 µM	251.6 nM	0.026 µM	
CC(C)Cc1ccc(-c2n[nH]cc2CN(C)CCN)cc1C(F)(F)F [Compound 48]	10.4 nM	0.0427 µM	3673 nM	0.0237 µM	
CNCCN(C)Cc1c[nH]nc1-c1ccc(OCCOc2cccc(N3CCOCC3)c2)cc1 [Compound 49]	10.5 nM	0.00705 µM	746.8 nM	0.0337 µM	
CNCCN(C)Cc1c[nH]nc1-c1cc(F)c(OC2CCOCC2)c(C(F)(F)F)c1 [Compound 53]	11 nM	0.0189 µM	479 nM	0.0328 µM	
CNCCN(C)Cc1ccnn1C1CCC2(CCOC2)CC1 (centres unmarked) [Compound 54]	11.2 nM	0.0329 µM	680 nM	0.0535 µM	
CNCCN(C)Cc1c[nH]nc1-c1cc(Cl)c(OCC(C)C)c(C(F)(F)F)c1 [Compound 56]	11.5 nM	0.0435 µM	765 nM	0.0168 µM	
CNCCN(C)Cc1c[nH]nc1-c1ccc(N(C)CCOc2cccc(OC)c2)cc1 [Compound 57]	11.8 nM	0.00902 µM	757.7 nM	0.042 µM	
CNCCN(C)Cc1c[nH]nc1-c1ccc(N2CC3CCCC3C2)nc1 (centres unmarked) [Compound 58]	11.9 nM	0.00835 µM	416.5 nM	0.0254 µM	
CNCCN(C)Cc1ccnn1C1CCC2(CCOCC2)CC1 [Compound 59]	12.2 nM	0.0347 µM	246.4 nM	0.042 µM	
CCCOCCOc1cc(-c2n[nH]cc2CN(C)CCNC)cc(C(F)(F)F)c1 [Compound 60]	12.7 nM	1.2 µM	1263 nM	0.0525 µM	
CNCCN(C)Cc1c[nH]nc1-c1ccc(OCCOc2ccccc2)cc1 [Compound 61]	12.9 nM	0.0114 µM	130 nM	0.0374 µM	
CNCCN(C)Cc1c[nH]nc1-c1ccc(OCCOc2cccc(C(C)C)c2)cc1 [Compound 62]	12.9 nM	0.00431 µM	1378 nM	0.0363 µM	
CNCCN(C)Cc1ccnn1C1CCC2(CCCO2)CC1 (centres unmarked) [Compound 63]	13.1 nM	0.0317 µM	172.7 nM	0.0445 µM	
CNCCN(C)Cc1c[nH]nc1-c1ccc(OCCCOC)c(OC2CCOCC2)c1 [Compound 64]	13.9 nM	0.0535 µM	4628 nM	0.249 µM	
CCC(CC)Oc1ccc(-n2nc(C)cc2CN(C)CCNC)cc1 [Compound 65]	14.1 nM		215.6 nM	0.0299 µM	0.136 µM

Compound	IC50 [1]	IC50 [2, 5]	ICW EC30 [3]	IC50 [4]	IC50 ([2]; PRMT6 IC50 (uM))
CNCCN(C)Cc1c[nH]nc1-c1ccc(N2CCCCC2)nc1 [Compound 66]	14.2 nM	0.0408 µM	393.1 nM	0.0371 µM	
CNCCN(C)Cc1c[nH]nc1-c1ccc(OCCCOC)c(OCC2CCOC2)c1 (centres unmarked) [Compound 68]	14.8 nM	0.038 µM	3454 nM	0.295 µM	
CNCCN(C)Cc1c[nH]nc1-c1ccc(N(CCCN2CCOCC2)CC(C)C)nc1 [Compound 69]	14.9 nM	2.54 µM	1337 nM	0.0312 µM	
CNCCN(C)Cc1c[nH]nc1-c1cc(CC(F)(F)F)cc(OCCOC)c1 [Compound 70]	15.2 nM		494 nM	0.0511 µM	1.27 µM
CNCCN(C)Cc1c[nH]nc1-c1cc(CC(C)C)cc(OCCOC)c1 [Compound 71]	15.3 nM	4.39 µM	680 nM	0.0452 µM	
CNCCN(C)Cc1c[nH]nc1-c1ccc(OCCOc2ccc(OCCOC)cc2)cc1 [Compound 72]	15.3 nM	0.0101 µM	163 nM	0.035 µM	
CNCCN(C)Cc1c[nH]nc1-c1ccc(C#N)cc1 [Compound 74]	16.1 nM		541 nM	0.0231 µM	0.027 µM
CNCCN(C)Cc1ccnn1-c1ccc(OCC2CC2)cc1 [Compound 75]	16.2 nM	0.0495 µM	538.1 nM	0.0487 µM	
CNCCN(C)Cc1c[nH]nc1-c1ccc(N2CCCC2)nc1 [Compound 78]	18.3 nM		757.1 nM	0.0309 µM	0.0395 µM
CNCCN(C)Cc1c[nH]nc1-c1cnc(OCCOC)c(C(F)(F)F)c1 [Compound 79]	19.8 nM	0.105 µM	2611 nM	0.171 µM	
CNCCN(C)Cc1ccnn1-c1ccc(OC(C)C)cc1 [Compound 80]	19.8 nM	0.114 µM	411 nM	0.0494 µM	
CNCCN(C)Cc1c[nH]nc1-c1ccc2oc(C(C)C)nc2c1 [Compound 81]	19.9 nM	0.0445 µM	927 nM	0.0947 µM	
CNCCN(C)Cc1c[nH]nc1-c1cnc(OCCCOC)c(C(F)(F)F)c1 [Compound 82]	20.3 nM	0.0777 µM	4060 nM	0.189 µM	
CNCCN(C)Cc1c[nH]nc1-c1ccc(OC(C)C)nc1 [Compound 83]	20.5 nM	0.069 µM	200 nM	0.0337 µM	
CNCCN(C)Cc1c[nH]nc1-c1cc(OC2CCOC2)cc(C(F)(F)F)c1 (centres unmarked) [Compound 84]	20.7 nM	0.707 µM	4957 nM	0.228 µM	
CNCCN(C)Cc1c[nH]nc1-c1ccc(OC2CC(O)C2)cc1 (centres unmarked) [Compound 85]	21.3 nM	0.0144 µM	3594 nM	0.0853 µM	
CNCCN(C)Cc1c[nH]nc1-c1ccc(OC2CCC(OC)CC2)cc1 (centres unmarked) [Compound 86]	22.5 nM	0.0196 µM	836 nM	0.0686 µM	
CNCCN(C)Cc1c[nH]nc1-c1ccc(OCCCOC)c(OCC2CCOCC2)c1 [Compound 87]	22.7 nM	0.0783 µM	6199 nM	0.424 µM	
CNCCN(C)Cc1cnn(C)c1-c1ccc(OC2CCOCC2)cc1 [Compound 88]	23 nM	0.0235 µM	1236 nM	0.0267 µM	
